From US4230712A, “7-Methyl-8β-lower alkyl or 7-methyl-8-lower alkyl B/C cis or trans morphinan-6-one compounds and therapeutic method of treating pain employing them” (Miles Laboratories, Inc., priority 1978, dated 1980)
Where a name gives a salt, the structure may show the parent alone. Read-outs that look alike come from different tables or passages of the source.

How the values were obtained:
mice = test: acetic acid mouse writhing test (analgesic effect, s.c.); format: in vivo, male CD-1 mice; settings: for ED50: mouse acetic acid writhing, s.c., dose reducing the number of writhes by 50%, IA @ dose = inactive at that dose
Procedure: (A) Analgesic effects upon mice (acetic acid writhing test).
TEST A. ACETIC ACID MOUSE WRITHING TEST
The analgesic effects of test compounds were determined in mice by use of the acetic acid writhing test described by B. J. R. Whittle, Brit. J. Pharmacol., 22:246 (1964). In this test at least three groups of five male CD-1 mice (18-22 g) each were given subcutaneous doses of the test drug dissolved in either distilled water or distilled water acidified with HCl depending on the solubility of the compound. In all cases, 0.4 milliliter of a 0.5% V/V acetic acid in distilled water solution was administered intraperitoneally 15 minutes post drug. The number of writhes in a 20 min. interval beginning 5 minutes after the acetic acid injection were determined and compared with the number of writhes in control groups which had received only acetic acid.
Percent inhibition of writhing was calculated as: [formula]
The ED50 dose, i.e., the dose required to reduce the number of writhes by 50%, was determined graphically from a plot of % inhibition as a probit versus log dose. Confidence limits of 95% were calculated on the basis of those results falling in the range 16-84% inhibition. See Litchfield, J. T. and Wilcoxon, F., J. Pharmacol. Exp. Ther., 96, 99-113, (1949).

rats = test: narcotic antagonist activity, modified rat tail flick test against morphine; format: in vivo, male albino Wistar rats; parameters: AD50: unit not given here; settings: for AD50: rat tail flick, dose inhibiting the morphine (ED80 dose s.c.) effect by 50%, IA @ dose = inactive at that dose
Procedure: (B) Narcotic antagonist activity in rats (modified rat tail flick test).
TEST B. EVALUATION OF NARCOTIC ANTAGONIST ACTIVITY
The narcotic antagonist effects of test compounds were determined by a modification of the rat tail flick procedure of Harris and Pierson (J. Pharmacol. Exp. Ther. 143:141 [1964]).
Male albino Wistar rats (100-120 g) were used for this study. A rat's tail is so placed so as to cover a photocell. Heat is applied by a lamp in a reflector with a timer being connected to the lamp and photocell so that the timer goes on when the light is turned on and is turned off when the photocell is uncovered. A rheostat, incorporated into a heating lamp is used to adjust the intensity of the light falling on the tail of the rat such that the rat's control reaction time is from two to four seconds. Animals with a control reaction time outside this range are rejected. The rheostat adjustment is made only if a significant proportion (more than 2 out of every 10 rats) of the reaction times are outside the range of two to four seconds. Groups of five rats were used each time, and two control times were determined at 60 and 30 minutes prior to subcutaneous injection of the drug.
Thirty minutes after the last control run the test drug was given intraperitoneally. This was followed ten minutes later by an ED80 dose of morphine subcutaneously. The animals were retested at 20 minutes after the morphine injection. Control animals were given vehicle and morphine only. The data were calculated as follows: [formula]
The data were plotted on log-probit paper and AD50 values, i.e., the dose required to inhibit the morphine effect by 50% within 95% confidence limits, were determined by the method of Litchfield and Wilcoxon.

[1] = charcoal meal test with attempted naloxone reversal; format: in vivo

SMILES	ED50 (mice; sc, read-out: ED50) [mg/kg]	AD50 (rats)	action in charcoal meal test upon attempted naloxone reversal ([1]; attempted reversal with naloxone, Hydrochloride)	duration of action suggested by charcoal meal test ([1]; inferred from novel action upon attempted naloxone reversal)	analgesic activity (mice; in words)	ED50 (mice)	narcotic antagonist activity (rats; in words)
C[C@H]1C[C@H]2[C@H]3Cc4ccc(O)cc4[C@@]2(CCN3CC2CC2)CC1=O.Cl [TR-5177, 17-Cyclopropylmethyl-3-hydroxy-7α-methylmorphinan-6-one Hydrochloride]	0.87	5.2	novel action in charcoal meal test upon attempted naloxone reversal	may have a longer duration of action than would be expected			
CC[C@H]1[C@@H]2[C@H]3Cc4ccc(O)cc4[C@@]2(CCN3CC2CCC2)CC(=O)[C@@H]1C [TR-5370, 17-Cyclobutylmethyl-8α-ethyl-3-hydroxy-7β-methyl-isomorphinan-6-one Hydrochloride]		> 10			essentially inactive	IA @ 10	essentially inactive
